Literature values, collected in patent US20250325495A1, “SILK NANOPARTICLE SYNTHESIS: TUNING SIZE, DISPERSITY, AND SURFACE CHEMISTRY FOR DRUG DELIVERY” (Trustees of Tufts College, priority 2022, published 2025).

Tested on: GBM cell lines
Details: compared with temozolomide

## COc1cccc2c1C(=O)c1c(O)c3c(c(O)c1C2=O)C[C@@](O)(C(=O)CO)C[C@@H]3O[C@H]1C[C@H](N)[C@H](O)[C@H](C)O1 [doxorubicin]
  cytotoxic effects: superior cytotoxic effects
